Experimental data from EP0277849A1, “Incorporation of one or more lipophilic, active principles into lipoproteins, lipoproteins obtained and pharmaceutical compositions containing them” (IRE-CELLTARG S.A., priority 1987, dated 1988).
Like-named read-outs stand apart in the source and are kept apart here.

Key:
[1] = Incorporation of antifungal agent into LDL by NaDoc dissociation-reconstitution; assay type: physicochemical; settings: 1,6 mg LDL, 482 µg of agent, dialysis
Experimental: On ajoute à 1,6 mg de LDL préalablement dialysées contre le tampon C, 10 mg de NaDoc solide et on laisse réagir 30 minutes à température ambiante. On ajoute à la préparation 2,8 ml d'une solution NaDoc 20 mM, Na2COs 50 mM, NaCi 50 mM, pH 10 contenant 482 µg de CT4000A ou 482 µg de CT040013. Les échantillons sont dialysés à 4° C contre trois fois 1 litre de tampon B.
Le pourcentage de récupération en LDL, en CT040013 et en NaDoc est déterminé au terme du processus de reconstitution (figure 13).
Il est également possible de rapporter la masse de substance incorporée par mole de LDL. Les résultats obtenus pour le CT04000A et la CT040013 sont respectivement de 0,4 et de 208 moles incorporés par mole de LDL.

Candida tropicalis = assay: Intracellular infection model: J77468 macrophages infected with Candida tropicalis; assay type: cell-based; settings: 2 % de sérum de veau foetal
Experimental: (§1) La lignée continue de macrophages J77468 d'origine murine provient d'un clonage de la souche J774 ATCC, et est cultivée en milieu RPMI 1640 additionné de glutamine 2 mM, 10% de sérum de veau foetal (décomplémenté 60 min. à 56°) et de 10 mM Hepes (pH 7.2). Une suspension de 5 10^6 cellules/ml sont infectées avec une culture de Candida tropicalis (5 10^5 levures/ml) provenant d'une culture de nuit dans de la casitone. Le milieu d'infection utilisé est du RPMI contenant 2 % de sérum de veau nouveau-né et 10 mM Hepes (pH 7.2).
(§2) Après 3 h d'incubation à 37° dans un mélange d'air 10 % C02, la phagocytose des levures est complète. La suspension cellulaire macrophages-Candida est centrifugée, lavée abondamment et répartie à raison de 10^5 macrophages infectés/alvéole dans des boîtes à 24 alvéoles contenant une lamelle de verre (diamètre 14 mm). Après 3 h de phagocytose (To), sur 100 macrophages, 32 contiennent de 1 à 6 Candida/macrophage, l'infection moyenne étant de 2 Candida/macrophage.
(§3) Toutes les levures ont été phagocytées sauf rares exceptions (estimation au microscope optique après coloration au May-Grünwald Giemsa). Douze concentrations différentes des drogues de référence et des drogues encapsulées dans les LDL sont distribuées dans les boîtes contenant les macrophages infectés.
(§4) L'évaluation de l'efficacité d'une drogue se fait à chaque concentration. Testées après 18 h d'incubation (37°, dans un mélange air-10 % C02), les levures se multiplient d'abord au sein des cellules hôtes, puis dans le milieu extracellulaire. Le taux de macrophages infectés est alors de 75 % chez les témoins. Une cellule peut contenir de 1 à plus de 20 Candida/cellule, la majorité contient de 2 à 6 levures/cellule. Le milieu de culture contient 10^8 Candida extracellulaires/ml (comptage dans une cellule de Burker).
L'activité d'une drogue encapsulée ou non dans les LDL ou Ac-LDL par rapport à un antifongique de référence, le kétoconazole (K), est déterminé par la concentration micromolaire en drogue réduisant de 50 % le nombre de macrophages infectés par les Candida (=C150). Signalons que parallèlement à la réduction au cours du traitement, du taux de cellules infectées, le nombre de Candida par macrophage infecté diminue fortement (de 1 à 3 levures/cellule).
Le milieu de culture est RPMI + glutamine 2 mM + Hepes 10 mM + 2 % de sérum de veau foetal.

macrophages J77468 = assay: Toxicity for J77468 macrophages (MTT reduction); assay type: cell-based, murine; settings: for % de viabilité cellulaire*: 18 h, MTT
Experimental: as §1
La viabilité des macrophages J77468 cultivés dans du milieu contenant l'agent antifongique encapsulé ou non dans les LDL figure au Tableau 5. K et K01 sont toxiques aux concentrations nécessaires pour réduire de 50 % l'infection intracellulaire (C1250) contrairement au LDL-K01 pour lequel aucune toxicité n'a pu être détectée.

C. tropicalis = assay: Extracellular infection in the infected-macrophage model; assay type: cell-based; settings: Candida tropicalis, read-out: CIext50^(a)
Experimental: as §1, §2, §3, §4
L'action des AF encapsulés sur une infection extracellulaire peut être évaluée de deux manières : d'une part en déterminant le nombre de Candida extracellulaires dans un modèle d'infection intracellulaire (voir VIII § 1.1.), d'autre part en mesurant la concentration minimale inhibitrice (CMI) de ces composés par la méthode de dilutions successives dans des boîtes à multipuits (milieu RPMI).

[2] = Incorporation of cytotoxic agent into LDL with submicellar NaDOC; assay type: physicochemical
Experimental: Les LDL isolées sur sépharose CL-4B sont dialysées pendant 24 heures à 4° C contre un tampon C.
L'agent thérapeutique est solubilisé dans un solvant organique à raison de 1 mg par ml. 100 µL de cette solution sont évaporés sous Argon dans un tube à essai. On ajoute au résidu sec, 2 ml de la solution de LDL et du NaDOC de façon à atteindre une concentration finale de 1 à 5 mM selon l'agent thérapeutique considéré. […]
Au terme de l'incubation, l'échantillon est filtré sur un filtre Millipore 0,45 µm. Le NaDOC est ensuite éliminé par chromatographie sur gel P6 (Biorard®) préalablement équilibré avec un tampon C.
La concentration en ApoB et en agent thérapeutique est déterminée sur chaque fraction.Les fractions correspondant aux LDL sont mises en commun et dialysées contre un tampon τrisHCl 10 mM NaCI 0,15 M EDTA 0,3 mM pH 7,4 pendant 24 heures à 4°C.
L'ensemble du procédé décrit en IV-1 a été appliqué à un dérivé VINCA ALCALOIDE liposoluble : le "C91 base": (4-désacétyl-vinblastine C-3N-dodécyl-carboxamide). La concentration en NaDOC utilisée lors de l'incubation a été ajustée à 2 mM final.
Si on précipite sélectivement les LDL, plus de 99 % du C91 base se retrouve dans le culot. On confirme ainsi que l'agent thérapeutique est bien associé aux LDL. On appellera cette préparation : LDL-C91. […]

Row | moles incorporés par mole de LDL [1] | IC50 (Candida tropicalis; Candida tropicalis, Macrophage, micromolar concentration reducing infected macrophages by 50 %, 18 h, read-out: CI50 (the source's name)) | IC50 (C. tropicalis; addition de 2 % Pl.H. (plasma humain)) | IC50 (C. tropicalis; addition de 2 % SVF (sérum de veau foetal)) | Compound | CI50 K/AF (Candida tropicalis) | toxicité aux concentrations nécessaires pour réduire de 50 % l'infection intracellulaire (macrophages J77468) | % de viabilité cellulaire* (macrophages J77468; Concentration 0,78 µM) | % de viabilité cellulaire* (macrophages J77468; Concentration 1,56 µM) | % de viabilité cellulaire* (macrophages J77468; Concentration 3,13 µM) | % de viabilité cellulaire* (macrophages J77468; Concentration 6,25 µM) | % de viabilité cellulaire* (macrophages J77468; Concentration 12,50 µM) | % de viabilité cellulaire* (macrophages J77468; Concentration 25,00 µM) | % de viabilité cellulaire* (macrophages J77468; Concentration 50,00 µM) | % de viabilité cellulaire* (macrophages J77468; Concentration 100,00 µM, versus untreated control) | nombre de molécules de drogue incorporées par molécule de LDL ([2]; 2 mM en NaDOC, temps d'incubation de 60 heures (3 heures à 25° C + 57 heures à 4°C)) | part retrouvée dans le culot après précipitation sélective des LDL ([2]; NaDOC 2 mM)
1 | 0,4 moles incorporés par mole de LDL | 52300 nM | 100 nM | 100 nM | CC(=O)N1CCN(c2ccc(OC[C@H]3CO[C@](Cn4ccnc4)(c4ccc(Cl)cc4Cl)O3)cc2)CC1 [K, reference compound] | 1 | toxiques | 85,16% | 86,67% | 64,56% | 50,52% | 16,40% | 3,16% | 3,50% | 1,75% | – | –
2 | – | – | – | – | 4-désacétyl-vinblastine C-3N-dodécyl-carboxamide [C91 base] | – | – | – | – | – | – | – | – | – | – | 70 | > 99%
